Measured values from ChEMBL document CHEMBL2311430, “Sirtuins as emerging anti-parasitic targets” (Eur J Med Chem, 2013).
pIC50: −log10 of the molar value. Numbered stars: 1 amine (or outer) side, 2 acyl side, 3 side chain; on linkers, the order of the positions; unused ones are H or OH. Bridge positions count the residues as written; N and C are the ends. Square brackets hold non-standard residues; d marks the D form. Peptide text beside a SMILES is read from it. X1 = CC(C)CCCCCCCCC[C@H](CC(=O)[*:1])O[*:2]

Test system: not listed separately
Assay: Inhibition of Plasmodium falciparum NAD-dependent protein deacetylase Sir2A
With `NC(=O)c1cccnc1` [NIACINAMIDE] the pIC50 was 4.29.

Target: T1, Putative silent information regulator 2 (Leishmania infantum, UniProt A0A6L0XH39)
T1 sequence (A0A6L0XH39 whole entry): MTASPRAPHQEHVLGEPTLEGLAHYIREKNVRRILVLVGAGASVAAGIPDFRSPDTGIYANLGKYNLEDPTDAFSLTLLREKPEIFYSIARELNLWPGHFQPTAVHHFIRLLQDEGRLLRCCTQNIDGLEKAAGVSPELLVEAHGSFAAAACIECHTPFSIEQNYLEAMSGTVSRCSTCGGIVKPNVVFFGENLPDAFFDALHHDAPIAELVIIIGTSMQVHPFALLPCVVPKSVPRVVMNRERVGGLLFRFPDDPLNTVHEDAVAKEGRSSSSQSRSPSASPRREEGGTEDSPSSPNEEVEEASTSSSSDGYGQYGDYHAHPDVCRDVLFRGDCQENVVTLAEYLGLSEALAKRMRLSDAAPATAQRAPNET
Assay: Inhibition of Leishmania infantum SIR2RP1
With `CC(NC(=O)c1ccccc1/N=C/c1c(O)ccc2ccccc12)c1ccccc1` (stereo unspecified) [SIRTINOL] the pIC50 was 3.71.
For `NC(=O)c1cccnc1` [NIACINAMIDE], the pIC50 was 4.40.
For `CC(C)CCCCCCCCC[C@@H]1CC(=O)N[C@@H](CCC(=O)O)C(=O)N[C@@H](CC(C)C)C(=O)N[C@H](CC(C)C)C(=O)N[C@@H](C(C)C)C(=O)N[C@@H](CC(=O)O)C(=O)N[C@H](CC(C)C)C(=O)N[C@@H](CC(C)C)C(=O)O1` [SURFACTIN] (EL[dL]VD[dL]L; linker N-C via X1), the pIC50 was 4.45.
Molecule `O=C1c2cccc3cccc(c23)C(=O)N1CCCNCCCCCCCCNCCCN1C(=O)c2cccc3cccc(c23)C1=O` [BNIPDAOCT] has a pIC50 of 5.04.
Work on `O=C1c2cccc3cccc(c23)C(=O)N1CCCNCCCCCCCCCNCCCN1C(=O)c2cccc3cccc(c23)C1=O` [BNIPDANON] yielded a pIC50 of 5.24.
